Data reported in article PMC12022980, “Rational Design of PROTAC Linkers Featuring Ferrocene as a Molecular Hinge to Enable Dynamic Conformational Changes” (Journal of the American Chemical Society, 2025).

Molecular target: VCB protein complex (VHL:ElonginC:ElonginB) (Homo sapiens, UniProt P40337)
Test: Native gel electrophoresis assay for ternary complex formation
Assay type: binding
Settings: VCB incubated with PROTAC 30 min, room temperature
Excerpt: To monitor ternary complex formation mediated by FerroTACs, we leveraged native gel electrophoresis assay, a methodology recently validated to assess VHL dimerization by homo-PROTACs.[41] This in vitro approach serves as a rapid semiqualitative tool to evaluate homo-FerroTAC activity in promoting stable ternary protein complexes. The technique is user-friendly, suitable for higher throughput, and requires lower protein quantities compared to other biophysical methods. The recombinant VCB protein complex (VHL:ElonginC:ElonginB) was incubated with the corresponding Homo-PROTACs (CM11, AS1, cisAS1, AS2) for 30 min at room temperature, followed by non-denaturing gel electrophoresis. Ternary complex formation was indicated by an upward shift in the protein band on the gel, in agreement with the higher molecular weight of the complex. […]
antibody (LI-COR #926-32213, 1:5,000) or IRDye 800CW donkey anti-mouse secondary antibody, (Li-COR […]
room temperature and protected from light. Thereafter, the membranes were washed with TBS-T three times for 10 min, and protein bands were acquired using a ChemiDoc MP imaging system (Bio-Rad). Band quantification was performed using Image Lab software and reported as ratio of each protein band relative to the lane’s loading control. The values obtained were then normalised to vehicle control.
Native Gel Electrophoresis Assay
Gel casting. […]

Sequence of VCB protein complex (VHL:ElonginC:ElonginB) (P40337 54-213 limits assumed, species assumed): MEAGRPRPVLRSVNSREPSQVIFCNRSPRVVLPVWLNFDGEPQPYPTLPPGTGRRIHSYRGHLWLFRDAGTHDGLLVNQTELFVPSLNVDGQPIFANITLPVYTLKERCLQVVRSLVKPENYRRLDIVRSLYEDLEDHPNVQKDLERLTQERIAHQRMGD
Sequence of VCB protein complex (VHL:ElonginC:ElonginB) (Q15369 17-112 partner limits assumed, species assumed): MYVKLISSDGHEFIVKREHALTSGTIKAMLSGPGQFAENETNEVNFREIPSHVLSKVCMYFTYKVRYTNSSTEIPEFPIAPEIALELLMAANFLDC
Sequence of VCB protein complex (VHL:ElonginC:ElonginB) (Q15370 1-104 partner limits assumed, species assumed): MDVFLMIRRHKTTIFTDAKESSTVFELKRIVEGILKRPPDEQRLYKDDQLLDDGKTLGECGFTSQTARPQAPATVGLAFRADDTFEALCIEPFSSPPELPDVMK

Cc1ncsc1-c1ccc(CNC(=O)[C@@H]2C[C@@H](O)CN2C(=O)[C@@H](NC(=O)COCCOCCOCCOCCOCCOCC(=O)N[C@H](C(=O)N2C[C@H](O)C[C@H]2C(=O)NCc2ccc(-c3scnc3C)cc2)C(C)(C)C)C(C)(C)C)cc1 [CM11]
ternary complex formation, native gel (in words): induced formation of an up-shifted protein band
